Among the data in PubChem BioAssay (NCI) are TGI and GI50 values, retold here.

Where “and” joins values, the source holds several entries; their conditions need not be identical. Equal values may be shown once.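 1) Cells in 96-well plates. 2) Compound, 48 h, 5 concentrations. 3) Linear interpolation between surrounding doses. 4) Unreached endpoint = highest concentration. Here, GI50 denotes the concentration required for 50% inhibition of growth. TGI marks complete inhibition of growth.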 Some results are limits rather than exact numbers.

One may read the TGI as the concentration giving total growth inhibition. Lower therefore signals more potent growth arrest. As usually defined, the GI50 is the concentration that inhibits growth by half.

The first test relates to HOP-92 NSCLC. Briefly: DTP human tumour cell line panel, 48 h.
In turn, `Cc1cc2c(c(C(=O)NCCC(=O)O)c1)Oc1c(cc(C)cc1C(=O)NCCC(=O)O)S2` had a TGI above 100 µM.

The next test concerns NCI-H226 lung. Kind of test: DTP human tumour cell line panel, 48 h.
With `Cc1cn(C2CC(N)C(CN)O2)c(=O)[nH]c1=O` (stereo not drawn), the TGI is above 100 µM.
Same read-out and setting: the figure for `COc1ccc2c(c1)c1c(n2CCN2CCOCC2)-c2ccccc2CC1` is 48.9 µM.
For the compound `CCCCCCCCCC[C@@H](O)[C@H]1CC[C@H]([C@H]2CC[C@H]([C@H](O)CCCCCCCCCC[C@@H]3CC(CC(C)=O)C(=O)O3)O2)O1` (stereo partly drawn), the GI50 was 1.43 µM; the concentration for total growth inhibition (TGI) was 6.56 µM and > 50 µM.
For the compound `CC(C)(C)C(=O)C(CC(=O)c1ccccc1)C(=O)C(C)(C)C`, the TGI was above 100 µM.
The same measure, in the same setting: the same measure for `Cc1cn(C2C=CC(COP(=O)(OCC3=CC(=O)c4ccccc4C3=O)N(C)CCCCCl)O2)c(=O)[nH]c1=O` (stereo not drawn): 25 µM; for `Clc1nc(Cl)nc(NC23CC4CC(CC(C4)C2)C3)n1`: 44.2 µM.
Still for that read-out and setting: the same measure for `CCOC(=O)c1cc2c([N+](=O)[O-])c(NC(C)=O)ccc2s1`: 54.8 µM; for `COc1cc2oc(-c3ccc(O)cc3)c(OC3OC(C)C(O)C(O)C3O)c(=O)c2c(O)c1OC` (stereo not drawn): above 100 µM.
`COC(=O)C1(Cc2ccccc2)Cc2cc3c(cc2C1=O)CCC3` (stereo not drawn) gave a TGI of 92.6 µM.
On to `COc1ccc(N2C(=O)C3c4[nH]c5ccc([N+](=O)[O-])cc5c4C4CCC(C(C)(C)C)CC4C3C2=O)cc1` (stereo not drawn), for which the TGI amounted to 72.6 µM.
Same read-out and setting: the same measure for `COC(=O)C1=C(C(=O)OC)C2OC1C1C2C2(C)C(C)=C(C)C1(C)S2=O` (stereo not drawn): 22.9 µM; for `O=C(O)c1ccc(NC(c2ccccc2)c2ccc3cccnc3c2O)cc1` (stereo not drawn): above 31 µM.
For the compound `O=c1[nH]c2nc3ccccc3c(=O)n2/c1=C/c1ccc(O)cc1`, the total growth inhibition concentration (TGI) is above 100 µM.
Same read-out and setting: the same measure for `CC[C@@H]1CC[C@@H]2[C@H](CC[C@]3(C)[C@@H](O)CC[C@@H]23)[C@H]1C(=O)O`: above 100 µM; for `Nc1nc(Cl)cc(NCC2(CO)CC(CCc3ccccc3)C2)n1` (stereo not drawn): above 100 µM.
In the case of `O=c1c2ccccc2[nH]c(=S)n1-c1ccc(N=Nc2cccc3c(O)cccc23)cc1`, the TGI was above 100 µM.
On the same count and under the same terms, the same measure for `c1cc2nnc1SCCSCCSc1ccc(nn1)SCCSCCS2`: above 100 µM; for `COc1ccc(-c2c(C#N)c(S)n(C3OC(COC(C)=O)C(OC(C)=O)C(OC(C)=O)C3OC(C)=O)c(=O)c2C#N)cc1` (stereo not drawn): above 100 µM; for `C[C@]12OC[C@H](c3ccccc3)N1C(=O)C1[C@H]2CC12SCCS2` (stereo partly drawn): above 100 µM.
`O=C(Cc1nc2ccc(C(=O)c3ccccc3)cc2[nH]c1=O)C(=O)Nc1ccc(Br)cc1`: the TGI is above 100 µM.
For the compound `Cc1c(/C=N\NC(=S)N2CCN(C(=S)N/N=C\c3c(C)n(C)n(-c4ccccc4)c3=O)CC2)c(=O)n(-c2ccccc2)n1C`, the TGI is above 100 µM.
As to `Cc1cc2c(c(C(=O)NCCC(=O)O)c1)Oc1c(cc(C)cc1C(=O)NCCC(=O)O)S2`, the TGI is above 100 µM.

For a further test, the system named is NCI-H522 lung. Kind of test: DTP human tumour cell line panel, 48 h.
Consider `Cc1cn(C2CC(N)C(CN)O2)c(=O)[nH]c1=O` (stereo not drawn), for which the TGI was above 100 µM.
The compound `COc1ccc2c(c1)c1c(n2CCN2CCOCC2)-c2ccccc2CC1` returned a TGI above 100 µM.
Compound `CCCCCCCCCC[C@@H](O)[C@H]1CC[C@H]([C@H]2CC[C@H]([C@H](O)CCCCCCCCCC[C@@H]3CC(CC(C)=O)C(=O)O3)O2)O1` (stereo partly drawn) had a TGI above 50 µM.
Compound `CC(C)(C)C(=O)C(CC(=O)c1ccccc1)C(=O)C(C)(C)C` came in with a TGI above 100 µM.
Compound `Cc1cn(C2C=CC(COP(=O)(OCC3=CC(=O)c4ccccc4C3=O)N(C)CCCCCl)O2)c(=O)[nH]c1=O` (stereo not drawn) came in with a TGI of 29.4 µM.
`Clc1nc(Cl)nc(NC23CC4CC(CC(C4)C2)C3)n1` gave a TGI of 30.9 µM.
On the same count and under the same terms, the figure for `CCOC(=O)c1cc2c([N+](=O)[O-])c(NC(C)=O)ccc2s1` is above 100 µM; for `COc1cc2oc(-c3ccc(O)cc3)c(OC3OC(C)C(O)C(O)C3O)c(=O)c2c(O)c1OC` (stereo not drawn) it is above 100 µM; for `COC(=O)C1(Cc2ccccc2)Cc2cc3c(cc2C1=O)CCC3` (stereo not drawn) it is 64.2 µM.
`COc1ccc(N2C(=O)C3c4[nH]c5ccc([N+](=O)[O-])cc5c4C4CCC(C(C)(C)C)CC4C3C2=O)cc1` (stereo not drawn) came in with a TGI above 100 µM.
Same read-out and setting: the same measure for `COC(=O)C1=C(C(=O)OC)C2OC1C1C2C2(C)C(C)=C(C)C1(C)S2=O` (stereo not drawn): 6.49 µM; for `O=C(O)c1ccc(NC(c2ccccc2)c2ccc3cccnc3c2O)cc1` (stereo not drawn): 55.8 µM.
In the case of `O=c1[nH]c2nc3ccccc3c(=O)n2/c1=C/c1ccc(O)cc1`, the TGI is above 100 µM.
Same read-out and setting: the same measure for `CC[C@@H]1CC[C@@H]2[C@H](CC[C@]3(C)[C@@H](O)CC[C@@H]23)[C@H]1C(=O)O`: above 100 µM; for `Nc1nc(Cl)cc(NCC2(CO)CC(CCc3ccccc3)C2)n1` (stereo not drawn): above 100 µM.
The same measure, in the same setting: the figure for `O=c1c2ccccc2[nH]c(=S)n1-c1ccc(N=Nc2cccc3c(O)cccc23)cc1` is above 100 µM; for `c1cc2nnc1SCCSCCSc1ccc(nn1)SCCSCCS2` it is above 100 µM.
On to `COc1ccc(-c2c(C#N)c(S)n(C3OC(COC(C)=O)C(OC(C)=O)C(OC(C)=O)C3OC(C)=O)c(=O)c2C#N)cc1` (stereo not drawn), for which the GI50 was 88.4 µM and 29.7 µM; the TGI is > 100 µM and 65.4 µM.
On to `C[C@]12OC[C@H](c3ccccc3)N1C(=O)C1[C@H]2CC12SCCS2` (stereo partly drawn), for which the TGI was above 100 µM.
`O=C(Cc1nc2ccc(C(=O)c3ccccc3)cc2[nH]c1=O)C(=O)Nc1ccc(Br)cc1` yielded a TGI above 100 µM.
As to `Cc1c(/C=N\NC(=S)N2CCN(C(=S)N/N=C\c3c(C)n(C)n(-c4ccccc4)c3=O)CC2)c(=O)n(-c2ccccc2)n1C`, the concentration for total growth inhibition (TGI) was above 100 µM.
As to `Cc1cc2c(c(C(=O)NCCC(=O)O)c1)Oc1c(cc(C)cc1C(=O)NCCC(=O)O)S2`, the TGI is above 100 µM.

The subject of the next test is OVCAR-3 ovarian. Briefly: DTP human tumour cell line panel, 48 h.
Turning to `Cc1cn(C2CC(N)C(CN)O2)c(=O)[nH]c1=O` (stereo not drawn), the TGI is above 100 µM.
Still for that read-out and setting: the same measure for `COc1ccc2c(c1)c1c(n2CCN2CCOCC2)-c2ccccc2CC1`: above 100 µM.
In the case of `CCCCCCCCCC[C@@H](O)[C@H]1CC[C@H]([C@H]2CC[C@H]([C@H](O)CCCCCCCCCC[C@@H]3CC(CC(C)=O)C(=O)O3)O2)O1` (stereo partly drawn), the GI50 is 4.48 µM and the total growth inhibition concentration (TGI) is above 50 µM.
Take `CC(C)(C)C(=O)C(CC(=O)c1ccccc1)C(=O)C(C)(C)C`: the TGI was above 100 µM.
Take `Cc1cn(C2C=CC(COP(=O)(OCC3=CC(=O)c4ccccc4C3=O)N(C)CCCCCl)O2)c(=O)[nH]c1=O` (stereo not drawn): the TGI was 19.1 µM.
`Clc1nc(Cl)nc(NC23CC4CC(CC(C4)C2)C3)n1` had a TGI of 37.7 µM.
The same measure, in the same setting: the same measure for `CCOC(=O)c1cc2c([N+](=O)[O-])c(NC(C)=O)ccc2s1`: above 100 µM; for `COc1cc2oc(-c3ccc(O)cc3)c(OC3OC(C)C(O)C(O)C3O)c(=O)c2c(O)c1OC` (stereo not drawn): above 100 µM; for `COC(=O)C1(Cc2ccccc2)Cc2cc3c(cc2C1=O)CCC3` (stereo not drawn): above 100 µM.
Same read-out and setting: the same measure for `COc1ccc(N2C(=O)C3c4[nH]c5ccc([N+](=O)[O-])cc5c4C4CCC(C(C)(C)C)CC4C3C2=O)cc1` (stereo not drawn): 49.5 µM; for `COC(=O)C1=C(C(=O)OC)C2OC1C1C2C2(C)C(C)=C(C)C1(C)S2=O` (stereo not drawn): 25.5 µM.
On the same count and under the same terms, the figure for `O=C(O)c1ccc(NC(c2ccccc2)c2ccc3cccnc3c2O)cc1` (stereo not drawn) is 14.2 µM; for `O=c1[nH]c2nc3ccccc3c(=O)n2/c1=C/c1ccc(O)cc1` it is above 100 µM; for `CC[C@@H]1CC[C@@H]2[C@H](CC[C@]3(C)[C@@H](O)CC[C@@H]23)[C@H]1C(=O)O` it is above 100 µM.
Turning to `Nc1nc(Cl)cc(NCC2(CO)CC(CCc3ccccc3)C2)n1` (stereo not drawn), the TGI was above 100 µM.
`O=c1c2ccccc2[nH]c(=S)n1-c1ccc(N=Nc2cccc3c(O)cccc23)cc1` yielded a TGI above 100 µM.
As to `c1cc2nnc1SCCSCCSc1ccc(nn1)SCCSCCS2`, the TGI was above 100 µM.
As for `COc1ccc(-c2c(C#N)c(S)n(C3OC(COC(C)=O)C(OC(C)=O)C(OC(C)=O)C3OC(C)=O)c(=O)c2C#N)cc1` (stereo not drawn), the GI50 is > 100 µM and 23.8 µM; the TGI was > 100 µM and 61.6 µM.
In the case of `C[C@]12OC[C@H](c3ccccc3)N1C(=O)C1[C@H]2CC12SCCS2` (stereo partly drawn), the TGI was above 100 µM.
